The subject of assay [1] is KU-19-19 cells. Nature of the assay: ATPlite luminescence assay of extracellular ATP. Format: cell-based, human. The conditions noted are these: pretreatment with 10 μM ruthenium red, 50 μM AV3-1. The procedure:
KU-19-19 cells (1 × 10^5 per well) were plated in 24-well plates and cultured for 24 hours. Medium was removed, and wells were washed with PBS before adding 1 mL of drugs dissolved in PBS. After 30 minutes, 100 μL of the supernatant was transferred to a 96-well plate. ATP content was measured using the ATPlite luminescence ATP assay (Revvity, catalog number 6016943) following manufacturer’s instructions. Luminescence was recorded using a Polarstar Omega reader and normalized to control wells without addition of drugs.
Fig. 4 TRPV3 activation by AV3-1 was enhanced by cholesterol supplementation and causes ATP release in KU-19-19 bladder cancer cells. […] Current amplitudes were recorded using voltage ramps from −100 mV to +100 mV (500-millisecond duration) and expressed as current density (pA/pF) measured at +100 mV and −100 mV. (C) Quantification of current densities (pA/pF) at −100 mV (inward current) and +100 mV (outward current) at the time points (1, 2) as indicated in (A, B). […] Statistical significance was determined using Kruskal-Wallis ANOVA followed by Conover test; ∗P < .05. […] Inset: Box-and-whisker plots of AV3-1 potencies under control conditions (open box) and following cholesterol supplementation (gray box), derived from individual concentration-response fits and expressed as pEC50 (-log10(EC50 [M])). […]
(Cellular ATP, detected with luciferase, serves as a proxy for viable cell number.)

The subject of assay [2] is HEK293 cells. The arrangement: method as in PMID 35916168. The conditions noted are these: >10 μM; cited from earlier work.

Molecules are shown by their SMILES.

For the compound `N.N.N.N.N.N.N.N.N.N.N.N.N.N.[Cl-].[Cl-].[Cl-].[Cl-].[Cl-].[Cl-].[O-2].[O-2].[Ru+3].[Ru+3].[Ru+4]` [ruthenium red, reference compound], in assay [1], the “effect on AV3-1-evoked ATP release” value was “reduced ATP levels”.

Turning to `Cc1ccc(O)c(C2CCC(C(C)C)=C2Cl)c1` (centres unmarked) [KS0365], the “effects on HEK293 cells at higher concentrations” value in assay [2] is “nonspecific effects”.

Source of the values: paper PMC12881674, “Activation of TRPV3 channels in bladder cancer cells stimulates ATP release” (Molecular Pharmacology, 2025).
